C(=Cc1ccc(-c2nc3ccccc3o2)cc1)c1ccc(-c2nc3ccccc3o2)cc1
solubility (mole fraction)
Conditions	323.15 K	338.15 K	353.15 K	368.15 K	383.15 K
in DMF	3.02e-06	7.12e-06	1.04e-05	1.57e-05	2.63e-05
in NMP	3.18e-06	7.96e-06	1.37e-05	2.44e-05	3.99e-05
in chlorobenzene	8.89e-06	2.1e-05	3.65e-05	4.9e-05	5.59e-05
in water	1.3e-07	3.39e-07	5.56e-07	6.6e-07	–
